Read-outs that look alike come from different tables or passages of the source.
Experiments:
[1] = Death rates after single intragastric treatment in rats; type: in vivo
[2] = tested on: Plasmodium berghei (KBG-173 strain); type: in vivo; conditions: for # Mice Alive Day 30/Total / # Mice Dead/Day Died: oral
Procedure: B. Antimalarial Activities: (a). In Vitro Antimalarial Studies. The in vitro assays were conducted by using a modification of the semiautomated microdilution technique of Desjardins et al and Chulay et al.. Four P. falciparum malaria parasite clones, from CDC Indochina III (W-2), CDC Sierra Leone I (D-6), Southeast Asia Isolates (TM91C235) and RCS (Isolates from Brazil) were utilized in susceptibility testing. They were derived by direct visualization and micromanipulation from patient isolates. The W-2 clone is susceptible to mefloquine but resistant to chloroquine, sulfadoxine, pyrimethamine, and quinine, whereas the D-6 clone is naturally resistant to mefloquine but susceptible to chloroquine, sulfadoxine, pyrimethamine and quinine. Test compounds were initially dissolved in DMSO and diluted 400 fold in RPMI 1640 culture medium supplemented with 25 mM Hepes, 32 mM NaHCO3 and 10% Albumax I (Gibco BRL, Grand Island, N.Y.). These solutions were subsequently serially diluted two-fold with a Biomek 1000 (Beckman, Fullerton, Calif.) over 11 different concentrations. The parasites were exposed to serial dilutions of each compound for 48 hrs and incubated at 37° C. with 5% O2, 5% CO2 and 90% N2 prior to the addition of [^3H]hypoxanthine. After a further incubation of 18 hrs, parasite DNA was harvested from each microtiter well using Packard Filtermate 196 Harvester (Meriden, Conn.) onto glass filters. Uptake of [^3H]hypoxanthine was measured with a Packard Topcount Scintillation. Concentration-response data were analyzed by a non-linear regression logistic dose response model and the IC50 values (50% inhibitory concentrations) for each compound were calculated. (Table 3). (b). In Vivo Antimalarial Studies against P. berghei in mice: The in vivo efficacy of the artelinic acid analogs were determined in a modified Thompson test. This test measures the survivability of mice and parasitemia clearance following administration of drug on days 3-5 post infection. In brief, 5×10^6 P. berghei-infected erythrocytes (KBG-173 strain) were inoculated intraperitoneally to female mice that weighed 24-30 g. By day three post-infection, parasitemia ranged from 1.0-3.7%. Each drug, dissolved in 5% sodium bicarbonate, was administered PO twice daily from day 3-5 post-infection. Total doses for each drug ranged from 1.5-384 mg/kg with 8 mice included in each dosage group. The percent suppression of parasitemia in the treated mice compared to the untreated controls was determined for each test compound; the SD-50 (fifty percent suppression dose) and SD-90 were determined from a non-linear regression logistic dose response fit at day 6 parasitemia data. Survival of mice to day 60 post-infection was considered a cure (C). Compounds were considered active (A) when the survival time of the treated mice was greater than twice the control mice, i.e., 12-14 day (Table 4-5). (c). Sporozoite Induced Test Each compound is ground with a mortar & pestle and suspended in 0.5% hydroxyethylcellulose—0.1% Tween 80 for compounds to be administered PO and those given SC are suspended in peanut oil. Each compound is prepared at 3 different dose levels as requested by WRAIR. Compounds are administered either PO or SC to mice once 4 hr before inoculation of sporozoites. Four-week-old male CD-1 mice, purchased from Charles River and weighing 16-17 g, are placed 5 per cage and allowed to acclimate for 4 days before being treated and then inoculated with sporozoites. They are fed food and water ad-lib and maintained at 76° F. with 12 hr light and 12 hr darkness. The cages and water bottles are changed biweekly. The mice are weighed on Days 0, 3 and 6 then biweekly when blood films are taken. Plasmodium yoelii (17×) is used to infect mice that will be used to infect the mosquitoes. Mice are given a single dose of test compound 4 hr before being inoculated intraperitoneally with 2.5×10^5 sporozoites of Plasmodium yoelii on Day 0. […]

[3] = Toxicity in P. cynomolgi-infected Rhesus monkeys; conditions: 12 mg/kg/day for 7 consecutive days

Structure (SMILES) | therapeutic index ([1]; rats) | drug-related deaths in rats ([1]; up to 800 mg by a single oral dose) | drug-related deaths in mice ([2]; in vivo) | # Mice Alive Day 30/Total ([2]; 220-0.625 mg/kg/day) | # Mice Dead/Day Died ([2]; 220-0.625 mg/kg/day) | signs of toxicity [3] | Deaths ([1]; rats n=4, single intragastric 50 mg/kg in 1% CMC suspension) | Deaths ([1]; rats n=4, single intragastric 100 mg/kg in 1% CMC suspension) | Deaths ([1]; rats n=4, single intragastric 200 mg/kg in 1% CMC suspension) | Deaths ([1]; rats n=4, single intragastric 400 mg/kg in 1% CMC suspension) | Deaths ([1]; rats n=4, single intragastric 800 mg/kg in 1% CMC suspension) | Day of Death: number of deaths ([1]; rats, 800 mg/kg, first cell after Deaths (day uncertain)) | # Mice Alive Day 30/Total ([2]; 1.25 mg/kg/day) | # Mice Alive Day 30/Total ([2]; 80-2.5 mg/kg/day) | # Mice Dead/Day Died ([2]; 80-2.5 mg/kg/day)
CC(=O)N(C(C)=O)c1nc(N(C(C)=O)C(C)=O)c2c(ccc3c2ccn3Cc2ccccc2C(F)(F)F)n1 [Compound 3e, 1,3-Bis(diacetylamino)-7-(2-trifluoromethyl)benzyl-7H-pyrrolo[3,2-f]quinazoline] | > 160 | no drug-related deaths | no drug-related deaths | 5/5 | None | neither 2b nor 3e exhibited any sign of toxicity |  |  |  |  |  |  |  |  | 
CCOC(=O)Nc1nc(NC(=O)OCC)c2c(ccc3c2ccn3Cc2ccccc2C(F)(F)F)n1 [Compound 2b] |  |  |  |  |  | neither 2b nor 3e exhibited any sign of toxicity | 0/4 | 0/4 | 0/4 | 0/4 | 1/4 | 1 | 3/5 | 5/5 | None

Source: patent US7253177B2, “Synthesis and antimalarial activity of pyrrolo[3,2-f]quinazoline-1,3-diamine derivatives” (United States of America as Represented by the Secretary of …, priority 2004, dated 2007)
